Laboratory results reported in patent US10023592B2, “Bromodomain inhibitors” (Celgene Quanticel Research, Inc., priority 2013, dated 2018).
pIC50: −log10 of the molar value.

What follows are compounds tested against BRD4(BD1) (Homo sapiens (Human), UniProt O60885) (assay: In vitro enzyme inhibition assay (BRD4 AlphaScreen)). Settings: class symbols A/B/C.
Assay type: binding
Protocol: His-tagged BRD4 was cloned, expressed and purified to homogeneity. […] BRD4 binding and inhibition was assessed by monitoring the interaction of biotinylated H4-tetraacetyl peptide (AnaSpec, H4K5/8/12/16(Ac), biotin-labeled) with the target using the AlphaScreen technology (Life Technologies). […] After 20 min incubation at room temp, Alpha streptavidin donor beads and Nickel Chelate acceptor beads were added to a final concentration of 5 μg/mL.
The ability of the compounds disclosed herein to inhibit BRD4 activity was quantified and the respective IC50 value was determined.

Compound | pIC50
CCNS(=O)(=O)c1cccc(-c2cn(C)c(=O)c3ccncc23)c1 [Example 124, N-ethyl-3-(2-methyl-1-oxo-2,6-naphthyridin-4-yl) benzenesulfonamide] | 5.30 to 6.30
CCS(=O)(=O)c1cccc(-c2cn(C)c(=O)c3cncn23)c1 [Example 133, 5-(3-ethylsulfonylphenyl)-7-methylimidazo[1,5-a]pyrazin-8-one] | < 5.30
Cn1cc(-c2cccc(S(C)(=O)=O)c2)nc(N)c1=O [Example 104, 3-amino-1-methyl-5-(3-methylsulfonylphenyl)pyrazin-2-one] | < 5.30
CCS(=O)(=O)c1ccc(O)c(-c2cn(C)c(=O)c3ccc(-c4cnn(C)c4)cc23)c1 [Example 80, 4-(5-ethylsulfonyl-2-hydroxyphenyl)-2-methyl-6-(1-methylpyrazol-4-yl) isoquinolin-1-one] | > 6.30
CCS(=O)(=O)c1cccc(-c2cn(C)c(=O)c(N)n2)c1 [Example 105, 3-amino-5-(3-ethylsulfonylphenyl)-1-methylpyrazin-2-one] | < 5.30
Cn1cc(-c2cccc(S(N)(=O)=O)c2)c2ccncc2c1=O [Example 55, 3-(2-methyl-1-oxo-2,7-naphthyridin-4-yl) benzenesulfonamide] | < 5.30
Cc1cc(=O)n(C)nc1-c1cc(S(C)(=O)=O)ccc1OCC1CC1 [Example 137, 6-[2-(cyclopropylmethoxy)-5-methylsulfonylphenyl]-2,5-dimethylpyridazin-3-one] | 5.30 to 6.30
Cc1cc(=O)n(C)cc1-c1cccc(NS(C)(=O)=O)c1 [Example 95, N-[3-(1,4-dimethyl-6-oxopyridin-3-yl)phenyl]methanesulfonamide] | 5.30 to 6.30

Same assay, conditions: in vitro enzyme inhibition assay

Compound | pIC50
Cn1cc(-c2nc(N3CCCS3(=O)=O)ncc2OCC2CC2)c2ccccc2c1=O [Example 156, 4-[5-(cyclopropylmethoxy)-2-(1,1-dioxo-1,2-thiazolidin-2-yl)pyrimidin-4-yl]-2-methylisoquinolin-1-one] | > 6.30
CCC1CCc2cc(NS(=O)(=O)CC)cc(-c3cn(C)c(=O)c4ccccc34)c2O1 (stereo not drawn) [Example 491, N-[2-ethyl-8-(2-methyl-1-oxoisoquinolin-4-yl)-3,4-dihydro-2H-chromen-6-yl]ethanesulfonamide] | > 6.30
CCS(=O)(=O)Nc1ccc(Oc2ccc(F)cc2F)c(-c2cn(C)c(=O)c3c2CNCC3)c1 [Example 142, N-[4-(2,4-difluorophenoxy)-3-(2-methyl-1-oxo-5,6,7,8-tetrahydro-2,6-naphthyridin-4-yl)phenyl]ethanesulfonamide] | 5.30 to 6.30
CCCCc1cnc(NS(=O)(=O)CC)nc1-c1cc(OC)c(=O)n(C)c1 [Example 362, N-[5-butyl-4-(5-methoxy-1-methyl-6-oxopyridin-3-yl)pyrimidin-2-yl]ethanesulfonamide] | > 6.30
CCc1cnc(NS(=O)(=O)CC)nc1-c1cn(C)c(=O)c2ccccc12 [Example 300, N-[5-ethyl-4-(2-methyl-1-oxoisoquinolin-4-yl)pyrimidin-2-yl]ethanesulfonamide] | > 6.30
[2H]C([2H])([2H])n1cc(-c2cc(NS(=O)(=O)CC)ccc2Oc2ccc(F)cc2F)ccc1=O [Example 141, N-{4-(2,4-difluorophenoxy)-3-[1-(^2H3)methyl-6-oxopyridin-3-yl]phenyl}ethanesulfonamide] | > 6.30
COc1ccc(COc2cc(-c3cn(C)c(=O)c4ccccc34)cc(S(C)(=O)=O)c2)cc1 [Example 343, 4-[3-[(4-methoxyphenyl)methoxy]-5-methylsulfonylphenyl]-2-methylisoquinolin-1-one] | 5.30 to 6.30
CCCCc1cnc(S(C)(=O)=O)nc1-c1cn(C)c(=O)c2ccccc12 [Example 304, 4-(5-butyl-2-methylsulfonyl-pyrimidin-4-yl)-2-methylisoquinolin-1-one] | > 6.30
Cn1cc(-c2cc(NS(C)(=O)=O)ccc2Oc2ccc(F)cc2F)c2c(c1=O)CCC2 [Example 506, N-[4-(2,4-difluorophenoxy)-3-(2-methyl-1-oxo-6,7-dihydro-5H-cyclopenta[c]pyridin-4-yl)phenyl]methanesulfonamide] | > 6.30

Results, then the compound that gave them:

pIC50 | Compound
> 6.30 | Cc1cc(-c2cc(OCc3cccnc3)cc(S(C)(=O)=O)c2)cn(C)c1=O [Example 338, 1,3-dimethyl-5-[3-methylsulfonyl-5-(pyridin-3-ylmethoxy)phenyl]pyridin-2-one]
> 6.30 | CCS(=O)(=O)c1ccc(OCC2CC2)c(-c2cn(C)c(=O)c3c2CCC3)c1 [Example 505, 4-[2-(cyclopropylmethoxy)-5-ethylsulfonylphenyl]-2-methyl-6,7-dihydro-5H-cyclopenta[c]pyridin-1-one]
5.30 to 6.30 | Cc1cc(-c2nc(NS(C)(=O)=O)ncc2Oc2ccc(F)cc2F)cn(CC2CCC2)c1=O [Example 298, N-[4-[1-(cyclobutylmethyl)-5-methyl-6-oxopyridin-3-yl]-5-(2,4-difluorophenoxy)pyrimidin-2-yl]methanesulfonamide]
> 6.30 | COCC1COc2c(cc(S(C)(=O)=O)cc2-c2cc(C)c(=O)n(C)c2)O1 (stereo not drawn) [Example 502, 5-[2-(methoxymethyl)-7-methylsulfonyl-2,3-dihydro-1,4-benzodioxin-5-yl]-1,3-dimethylpyridin-2-one]
> 6.30 | Cc1cc(-c2cc(S(=O)(=O)C(C)C)ccc2OCC2CC2)cn(C)c1=O [Example 394, 5-[2-(cyclopropylmethoxy)-5-propan-2-ylsulfonylphenyl]-1,3-dimethylpyridin-2-one]
5.30 to 6.30 | Cc1cc(-c2cc(S(C)(=O)=O)cc3c2OCCO3)cn(C)c1=O [Example 489, 1,3-dimethyl-5-(7-methylsulfonyl-2,3-dihydro-1,4-benzodioxin-5-yl)pyridin-2-one]
5.30 to 6.30 | CCS(=O)(=O)Nc1ncc(Oc2ccc(F)cc2F)c(-c2cc(C)c(=O)n(CC3CCC3)c2)n1 [Example 299, N-[4-[1-(cyclobutylmethyl)-5-methyl-6-oxopyridin-3-yl]-5-(2,4-difluorophenoxy)pyrimidin-2-yl]ethanesulfonamide]
> 6.30 | Cn1cc(-c2cc(OCC3CC3)cc(S(C)(=O)=O)c2)c2ccoc2c1=O [Example 350, 4-[3-(cyclopropylmethoxy)-5-methylsulfonylphenyl]-6-methylfuro[2,3-c]pyridine-7-one]
> 6.30 | CCC#CCOc1ccc(S(=O)(=O)CC)cc1-c1cc(OC)c(=O)n(C)c1 [Example 390, 5-(5-ethylsulfonyl-2-pent-2-ynoxyphenyl)-3-methoxy-1-methylpyridin-2-one]
> 6.30 | Cn1cc(-c2cc(S(C)(=O)=O)ccc2OCC2CC2)c2ocnc2c1=O [Example 237, 7-[2-(cyclopropylmethoxy)-5-methylsulfonylphenyl]-5-methyl-[1,3]oxazolo[4,5-c]pyridin-4-one]
> 6.30 | CCCC1Cc2cc(NS(=O)(=O)CC)cc(-c3cc(C)c(=O)n(C)c3)c2O1 (stereo not drawn) [Example 495, N-[7-(1,5-dimethyl-6-oxopyridin-3-yl)-2-propyl-2,3-dihydro-1-benzofuran-5-yl] ethanesulfonamide]
> 6.30 | CCCCc1cnc(NS(C)(=O)=O)nc1-c1cc(C)c(=O)n(C)c1 [Example 363, N-[5-butyl-4-(1,5-dimethyl-6-oxopyridin-3-yl)pyrimidin-2-yl]methanesulfonamide]
> 6.30 | Cc1cc(-c2cc(S(C)(=O)=O)ccc2NC2CCC(F)(F)CC2)cn(C)c1=O [Example 413, 5-[2-[(4,4-difluorocyclohexyl)amino]-5-methylsulfonylphenyl]-1,3-dimethylpyridin-2-one]
